From patent US20210199640A1, “Methods of Normalizing Aberrant Glycolytic Metabolism in Cancer Cells” (The Board of Trustees of the Leland Stanford Junior …, priority 2019, published 2021)

Tested on: PKM2
Assay: [18F]DASA-23 cellular uptake as measure of PKM2 expression in U87 GBM cells
Type: cell-based, Human
Protocol: [18F]DASA-23 can be used to detect changes in GBM metabolism in response to TMZ and TTFields therapies. In one experiment, Human U87 GBM cells were subjected to 200 kHz TTFields, the IC50 of TMZ, or vehicle for three or six days (n≥3/condition), followed by evaluation of [18F]DASA-23 uptake (e.g., FIGS. 2 and 6). Immunofluorescence for PKM2 was performed to confirm the [18F]DASA-23 uptake results. (e.g., FIG. 9). Western blot analysis was performed to determine the effect of TMZ and TTFields exposure on the expression of PKM2. 2-way ANOVA with multiple comparisons was performed. (e.g., FIG. 8). Data are reported as mean±SD.
The ability of [18F]DASA-23 to detect changes in metabolism in response to TMZ and TTFields therapies, in cell culture and an orthotopic murine model of human GBM (FIG. 6) was evaluated. There was a significant interaction between the treatment (vehicle, TMZ, or TTFields) and treatment duration (3 or 6 days) on PKM2 expression as measured by cellular uptake of [18F]DASA-23 (p=0.005, 2-way ANOVA) (FIG. 6).

[1] = U87 cells, after exposure to TTFields, over 60 minutes, FIG. 7

| Compound | reduction of PKM2 expression (U87 glioblastoma cells, over a 30 minute period, after treatment with chemotherapy (TMZ), FIG. 6) | reduction of [18F]DASA-23 uptake (U87 cells, after exposure to TTFields, over 30 minutes, FIG. 7) | reduction of [18F]DASA-23 retention [1] | reduction of [18F]DASA-23 uptake [1] |
| --- | --- | --- | --- | --- |
| Cn1nnc2c(C(N)=O)ncn2c1=O [TMZ, Temozolomide] | at least 10% | – | – | – |
| COc1ccc(S(=O)(=O)N2CCN(S(=O)(=O)c3c(F)cccc3[18F])CC2)cc1 [[18F]DASA-23, 1-((2-fluoro-6-[18F]fluorophenyl)sulfonyl)-4-((4-methoxyphenyl)sulfonyl)piperazine] | – | at least 5% | at least 20% | at least 10% |
